Test results reported in paper PMC7845594, “Novel Immune Modulators Enhance Caenorhabditis elegans Resistance to Multiple Pathogens” (mSphere, 2021).

Columns and labels:
[1] = system: C. elegans host defense pathway genes; assay: nanoString expression of 115 immune- and stress-responsive genes; conditions: 100 μM LK molecules, 16 h
Procedure: The ratio of MIC to EC was determined for each of the 69 compounds.
Analysis of the expression of 115 immune- and stress-responsive genes using nanoString technology. Download Table S1, XLSX file, 0.02 MB.
For nanoString-based (nanoString Technologies, Seattle, WA) experiments, 2,000 wild-type, young adult worms were exposed to 100 μM LK molecules or DMSO control in S Basal medium in 6-well plates for 16 h. RNA purification and gene expression analysis were performed according to nanoString guidelines. Two biological replicates were tested for each condition.

[2] = system: glp-4(bn2) worms reared on RNAi, exposed to P. aeruginosa PA14; assay: P. aeruginosa liquid killing assay after RNAi knockdown; type: in vivo, Caenorhabditis elegans; conditions: for Rescue in liquid killing after RNAi of a panel of phosphatases, kinases, transcription factors and most upregulated genes: Fig S4A
Text: Based on the presence of effectors for well-known innate immune pathways in the transcriptional profiles of C. elegans exposed to LK molecules, we predicted that the compounds were acting through one or more of these pathways, despite the low levels of reporter activation. To test this, RNAi was used to knock down daf-16/FOXO, elt-2/GATA, pmk-1/p38 MAPK, atf-7/ATF7, or skn-1/Nrf2. Sterile, young adult glp-4(bn2) worms were then exposed to P. aeruginosa under liquid killing conditions in the presence of either DMSO or one of the immunostimulatory compounds.
RNAi conditions measured at different time points are represented by different graphs within the same panel. […] At least six wells, containing 20 worms each, were used per biological replicate to determine survival for each condition, and averages from at least three biological replicates are shown. *, P < 0.05; **, P < 0.01; ***, P < 0.001. P values were calculated using Student’s t test. Error bars represent standard error of the mean.
(A) Sterile, young adult glp-4(bn2) worms were reared on RNAi targeting irid-28, F38B2.4, T24B8.5, mex-5, Y105C5B.15, comt-4, or empty vector and then exposed to P. aeruginosa in the liquid killing assay. (B) Sterile, young adult glp-4(bn2) worms were reared on RNAi targeting met-2, osm-8, rde-4, oga-1, daf-2, lin-35, glp-1, dpy-10, or dpy-9 and then exposed to P. aeruginosa in the liquid killing assay. These genes were chosen using WormEXP with the criterion that gene expression after mutation would be similar (in terms of upregulation and downregulation) to exposure to LK56. Endpoints were collected at different times (to allow DMSO-treated worms to be approximately 30 to 50% dead). Assays collected at different time points are shown on different graphs. […] For each experiment, three biological replicates were performed, with each replicate comprised of six wells with 20 worms/well. Error bars represent standard error of the mean. *, P < 0.05; **, P < 0.01; ***, P < 0.001. P values were calculated using Student’s t test. Download FIG S4, PDF file, 0.2 MB.
Due to its strong rescue and unique transcriptional profile, we also created a panel of genes to test for LK56. […] This effect was specific, since mdt-15(RNAi) had no effect on the ability of LK35 or LK38 to rescue in this assay (Fig. 7B). Importantly, MDT-15 was also required for LK56-mediated rescue in E. faecalis and S. aureus pathogenesis assays (Fig. 7C).
FIG 7 Rescue from pathogens by LK56 requires […]. (A and B) Young adult glp-4(bn2) worms reared on vector or mdt-15(RNAi) were incubated with P. aeruginosa strain PA14 in the liquid killing assay with or without LK56 at 32 µM. (B) Young adult glp-4(bn2) worms reared on vector or mdt-15(RNAi) were exposed to P. aeruginosa PA14 in the liquid killing assay in the presence of LK35, LK38, or DMSO. (C) Young adult glp-4(bn2) worms reared on vector or mdt-15(RNAi) and then exposed to E. faecalis or S. aureus in liquid-based assays in the presence or absence of LK56 at 32 µM. (D) Young adult glp-4(bn2) worms reared on vector, nhr-49(RNAi), or nhr-45(RNAi) were incubated with P. aeruginosa PA14 in the liquid killing assay with or without LK56 at 32 µM. Each replicate included at least six wells, with approximately 20 worms per well. The data shown are mean values from a representative replicate. *, P < 0.05; **, P < 0.01; ***, P < 0.001. P values were calculated using Student’s t test. Error bars represent the standard error of the mean. At least three biological replicates were performed.
MDT-15 partners with at least two different nuclear hormone receptors, NHR-45 and NHR-49, to regulate gene expression.

## CCN(CC)/N=N/c1ccc(C(=O)O)cc1 [LK35]
[1]
  B0024.4 expression, induction: 0.69 fold
  C02B4.2 nhr-17 expression, induction: 4.68 fold
  C06B3.7 expression, induction: 4.95 fold
  C07G3.2 irg-1 expression, induction: 2.81 fold
  C12C8.1 hsp-70 expression, induction: 9.31 fold
  C15F1.7 sod-1 expression, induction: 1.69 fold
  C29F7.2 expression, induction: 7.54 fold
  C31A11.5 oac-6 expression, induction: 4.61 fold
  C32D5.12 expression, induction: 0.39 fold
  C32H11.1 expression, induction: 0.93 fold
  C32H11.3 expression, induction: 2.10 fold
  C34G6.4 pgp-2 expression, induction: 8.04 fold
  C37C3.10 expression, induction: 68.75 fold
  C37H5.8 hsp-6 expression, induction: 4.54 fold
  C49G7.5 irg-2 expression, induction: 14.15 fold
  F08F8.5 numr-1 expression, induction: 26.12 fold
  F08H9.4 expression, induction: 14.14 fold
  F14F9.3 expression, induction: 17.12 fold
  F22B5.4 expression, induction: 0.69 fold
  F22H10.2 expression, induction: 2.36 fold
  F26A3.4 expression, induction: 1.28 fold
  F35E8.11 cdr-1 expression, induction: 87.64 fold
  F35G2.4 phy-2 expression, induction: 1.60 fold
  F37B12.2 gcs-1 expression, induction: 12.12 fold
  F43E2.8 hsp-4 expression, induction: 31.03 fold
  F44E5.5 expression, induction: 8.59 fold
  F49F1.6 expression, induction: 2.32 fold
  F49F1.7 expression, induction: 2.34 fold
  F49H6.13 expression, induction: 18.14 fold
  F54B8.4 expression, induction: 4.73 fold
  F55G11.2 expression, induction: 2.21 fold
  F59A7.1 clec-206 expression, induction: 9.10 fold
  F59B10.4 expression, induction: 4.48 fold
  H12D21.1 nspa-1 expression, induction: 36.00 fold
  H23N18.1 ugt-13 expression, induction: 10.66 fold
  H23N18.3 ugt-8 expression, induction: 9.55 fold
  K05B2.4 expression, induction: 14.78 fold
  K08F4.7 gst-4 expression, induction: 12.53 fold
  K09A9.1 nipi-3 expression, induction: 4.14 fold
  K10D11.2 expression, induction: 11.43 fold
  K10G4.3 expression, induction: 5.63 fold
  R03D7.6 gst-5 expression, induction: 144.12 fold
  R08H2.1 dhs-23 expression, induction: 121.17 fold
  R10E8.3 expression, induction: 5.61 fold
  T19D12.3 expression, induction: 88.57 fold
  T19H12.1 ugt-9 expression, induction: 6.78 fold
  T21E8.1 pgp-6 expression, induction: 2.39 fold
  T22B7.3 expression, induction: 7.07 fold
  T24C4.4 expression, induction: 4.80 fold
  T24E12.5 expression, induction: 34.94 fold
  T27E4.3 hsp-16.48 expression, induction: 10.63 fold
  T27E4.8 hsp-16.1 expression, induction: 10.52 fold
  T27F6.8 expression, induction: 3.60 fold
  T28C12.4 expression, induction: 9.37 fold
  W02D9.10 expression, induction: 7.18 fold
  Y22D7AL.5 hsp-60 expression, induction: 2.52 fold
  Y38E10A.15 nspe-7 expression, induction: 3.39 fold
  Y46H3A.2 hsp-16.41 expression, induction: 6.06 fold
  Y46H3A.3 hsp-16.2 expression, induction: 6.32 fold
  Y56A3A.33 expression, induction: 3.94 fold
  Y58A7A.5 expression, induction: 9.18 fold
  ZC376.7 atfs-1 expression, induction: 3.43 fold
  ZC443.6 ugt-16 expression, induction: 25.67 fold
  ZK697.6 gst-21 expression, induction: 2.35 fold
[2]
  Rescue in liquid killing after RNAi of a panel of phosphatases, kinases, transcription factors and most upregulated genes: rescue was unchanged
[2]; P. aeruginosa PA14, LK56 at 32 µM
  Rescue in liquid killing after mdt-15(RNAi): no effect

## CNC(=O)Oc1c(Br)cc2sc(=O)oc2c1Br [LK34]
[1]
  B0024.4 expression, induction: 0.79 fold
  C02B4.2 nhr-17 expression, induction: 1.60 fold
  C03G6.15 cyp-35A2 expression, induction: 2.32 fold
  C06B3.3 cyp-35C1 expression, induction: 2.40 fold
  C06B3.7 expression, induction: 2.34 fold
  C07G3.2 irg-1 expression, induction: 2.14 fold
  C12C8.1 hsp-70 expression, induction: 2.02 fold
  C15F1.7 sod-1 expression, induction: 2.23 fold
  C29F7.2 expression, induction: 1.42 fold
  C31A11.5 oac-6 expression, induction: 3.81 fold
  C32D5.12 expression, induction: 2.84 fold
  C32H11.1 expression, induction: 5.22 fold
  C32H11.3 expression, induction: 4.04 fold
  C34G6.4 pgp-2 expression, induction: 1.78 fold
  C37C3.10 expression, induction: 2.56 fold
  C37H5.8 hsp-6 expression, induction: 2.28 fold
  C49G7.5 irg-2 expression, induction: 2.61 fold
  F08F8.5 numr-1 expression, induction: 3.73 fold
  F08H9.4 expression, induction: 2.08 fold
  F14F9.3 expression, induction: 2.72 fold
  F22B5.4 expression, induction: 0.86 fold
  F22H10.2 expression, induction: 1.72 fold
  F26A3.4 expression, induction: 1.09 fold
  F35E8.11 cdr-1 expression, induction: 3.15 fold
  F35G2.4 phy-2 expression, induction: 1.71 fold
  F37B12.2 gcs-1 expression, induction: 4.32 fold
  F43E2.8 hsp-4 expression, induction: 2.24 fold
  F44E5.5 expression, induction: 1.49 fold
  F49F1.6 expression, induction: 1.85 fold
  F49F1.7 expression, induction: 3.64 fold
  F49H6.13 expression, induction: 2.55 fold
  F54B8.4 expression, induction: 1.78 fold
  F55G11.2 expression, induction: 1.39 fold
  F59A7.1 clec-206 expression, induction: 2.12 fold
  F59B10.4 expression, induction: 1.89 fold
  H12D21.1 nspa-1 expression, induction: 39.17 fold
  H23N18.1 ugt-13 expression, induction: 2.95 fold
  H23N18.3 ugt-8 expression, induction: 5.59 fold
  K05B2.4 expression, induction: 3.62 fold
  K07C6.3 cyp-35B2 expression, induction: 4.00 fold
  K07G6.4 cyp-35B1 expression, induction: 2.31 fold
  K08F4.7 gst-4 expression, induction: 9.69 fold
  K09A9.1 nipi-3 expression, induction: 1.52 fold
  K09D9.2 cyp-35A3 expression, induction: 3.13 fold
  K10D11.2 expression, induction: 1.97 fold
  K10G4.3 expression, induction: 2.74 fold
  R03D7.6 gst-5 expression, induction: 9.49 fold
  R08H2.1 dhs-23 expression, induction: 3.44 fold
  R10E8.3 expression, induction: 2.60 fold
  T19D12.3 expression, induction: 3.00 fold
  T19H12.1 ugt-9 expression, induction: 2.48 fold
  T21E8.1 pgp-6 expression, induction: 2.62 fold
  T22B7.3 expression, induction: 1.84 fold
  T24C4.4 expression, induction: 2.67 fold
  T24E12.5 expression, induction: 4.33 fold
  T27E4.3 hsp-16.48 expression, induction: 1.73 fold
  T27E4.8 hsp-16.1 expression, induction: 1.82 fold
  T27F6.8 expression, induction: 1.45 fold
  T28C12.4 expression, induction: 1.59 fold
  W02D9.10 expression, induction: 1.15 fold
  Y22D7AL.5 hsp-60 expression, induction: 1.77 fold
  Y38E10A.15 nspe-7 expression, induction: 2.14 fold
  Y46H3A.2 hsp-16.41 expression, induction: 2.00 fold
  Y46H3A.3 hsp-16.2 expression, induction: 1.72 fold
  Y56A3A.33 expression, induction: 1.77 fold
  Y58A7A.5 expression, induction: 3.10 fold
  ZC376.7 atfs-1 expression, induction: 1.86 fold
  ZC443.6 ugt-16 expression, induction: 2.76 fold
  ZK697.6 gst-21 expression, induction: 2.66 fold
[2]
  Rescue in liquid killing after RNAi of a panel of phosphatases, kinases, transcription factors and most upregulated genes: rescue was unchanged
